Results from patent US12594317B2 (priority 2020, dated 2026).

System: HEK293 cell line stably expressing ACE2 receptor infected by COVID-19 pseudovirus
Assay type: cell-based, human
Details: positive control group, 10 μL of 100 μM solution per well, 48 h

SMILES: CCN(CC)CCCC(C)Nc1ccnc2cc(Cl)ccc12 (stereo not shown) [chloroquine phosphate]
- RLU/RLUc value (ratio of fluorescence value of test group to average fluorescence intensity of negative control group): 0.05±0.01
